Measurements: patent US9550782B2, “Compounds and methods for treating diabetes” (Medivation Technologies, Inc., priority 2011, dated 2017)
“And” between values parts separate entries of the source, which are not always exact repeats. Identical values can stand only once.

How the values were obtained:
[1] = biological target: T1, human recombinant adrenergic α2B receptor (Homo sapiens, UniProt P18089); assay: Radioligand binding, adrenergic α2B ([3H]Rauwolscine); settings: for Percentage inhibition of ligand binding, Adrenergic α2B (0.03 μM): repeat datapoints each shown; for inhibition at 0.03 µM: read-out: Percentage inhibition of ligand binding, Adrenergic α2B (0.03 μM), compound at 0.03 μM, repeat datapoints each shown
T1 construct: expressed in transfected cells; host or cells: CHO-K1
T1 sequence (P18089 1-450): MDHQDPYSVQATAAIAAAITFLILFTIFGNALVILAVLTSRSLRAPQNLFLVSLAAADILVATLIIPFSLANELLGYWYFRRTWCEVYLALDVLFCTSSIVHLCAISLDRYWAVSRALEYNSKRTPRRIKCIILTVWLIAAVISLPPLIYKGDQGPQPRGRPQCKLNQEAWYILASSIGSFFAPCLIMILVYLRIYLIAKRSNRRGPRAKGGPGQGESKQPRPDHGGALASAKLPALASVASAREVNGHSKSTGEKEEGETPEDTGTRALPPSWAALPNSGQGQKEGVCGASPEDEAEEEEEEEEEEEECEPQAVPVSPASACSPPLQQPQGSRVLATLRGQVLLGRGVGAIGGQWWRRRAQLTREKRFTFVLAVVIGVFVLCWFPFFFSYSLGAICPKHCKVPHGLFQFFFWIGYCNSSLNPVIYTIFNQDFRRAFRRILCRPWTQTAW
Method: To evaluate in radioligand binding assays the activity of compounds of the invention, human recombinant adrenergic α2B receptor expressed in Chinese hamster ovary (CHO) K1 cells (Uhlen, S. et al, Eur. J. Pharmacol. 343(1):93, 1998) in a modified Tris-HCl buffer (50 mM Tris-HCl, pH 7.4, 12.5 mM MgCl2, 1 mM EDTA, 0.2% BSA) was used. Compounds of the invention were incubated with 2.5 nM [3H]Rauwolscine for 60 min at 25° C. Non-specific binding was estimated in the presence of 10 μM Prazosin. Receptor proteins were filtered and washed, the filters were then counted to determine [3H]Rauwolscine specifically bound. […] Compounds of the invention were tested in this biochemical assay and percent inhibition of specific binding was determined. Biochemical assay results are presented as the percent inhibition of specific binding in Table B1.

[2] = biological target: T2, rat adrenergic α1B receptor (Rattus norvegicus, UniProt P15823); assay: Radioligand binding, adrenergic α1B ([3H]Prazosin); set-up: species or system Wistar Rat; settings: for Percentage inhibition of ligand binding, Adrenergic α1B (0.1 μM): compound at 0.1 μM, repeat datapoints each shown
T2 construct: rat adrenergic α1B receptor obtained from Wistar Rat liver; from tissue; host or cells: Wistar rat liver
T2 sequence (P15823 1-515): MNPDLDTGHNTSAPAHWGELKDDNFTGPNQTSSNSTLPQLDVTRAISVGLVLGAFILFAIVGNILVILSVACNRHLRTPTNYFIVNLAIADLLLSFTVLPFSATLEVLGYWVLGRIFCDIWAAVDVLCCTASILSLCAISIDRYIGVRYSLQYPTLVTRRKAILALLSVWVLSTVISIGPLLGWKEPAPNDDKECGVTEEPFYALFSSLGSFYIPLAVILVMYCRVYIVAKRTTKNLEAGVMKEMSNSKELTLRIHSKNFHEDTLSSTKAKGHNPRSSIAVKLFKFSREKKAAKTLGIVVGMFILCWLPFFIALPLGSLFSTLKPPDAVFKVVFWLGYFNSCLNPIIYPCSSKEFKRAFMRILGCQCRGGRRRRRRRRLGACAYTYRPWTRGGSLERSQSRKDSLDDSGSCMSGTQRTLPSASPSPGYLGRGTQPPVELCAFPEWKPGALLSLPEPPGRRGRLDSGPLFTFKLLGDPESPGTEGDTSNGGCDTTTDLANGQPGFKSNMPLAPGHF
Method: To evaluate in radioligand binding assays the activity of compounds of the invention, rat adrenergic α1B receptor obtained from Wistar Rat liver (Garcia-S'ainz, J. et al, Biochem. Biophys. Res. Commun. 186:760, 1992; Michel, A. et al, Br. J. Pharmacol. 98:883, 1989) in a modified Tris-HCl buffer (50 mM Tris-HCl buffer, pH 7.4, 0.5 mM EDTA) was used. Compounds of the invention were incubated with 0.25 nM [^3H]Prazosin for 60 min at 25° C. Non-specific binding was estimated in the presence of 10 μM phentolamine. Receptor proteins were filtered and washed, the filters were then counted to determine [^3H]Prazosin specifically bound. […] Compounds of the invention were tested in this biochemical assay and percent inhibition of specific binding was determined. Biochemical assay results are presented as the percent inhibition of specific binding in Table B1.

[3] = biological target: T3, human recombinant adrenergic α2A receptor (Homo sapiens, UniProt P08913); assay: Radioligand binding, adrenergic α2A ([3H]MK-912); settings: for inhibition at 0.1 µM: read-out: Percentage inhibition of ligand binding, Adrenergic α2A (0.1 μM), compound at 0.1 μM
T3 construct: expressed in transfected cells; host or cells: insect Sf9 cells
T3 sequence (P08913 1-465): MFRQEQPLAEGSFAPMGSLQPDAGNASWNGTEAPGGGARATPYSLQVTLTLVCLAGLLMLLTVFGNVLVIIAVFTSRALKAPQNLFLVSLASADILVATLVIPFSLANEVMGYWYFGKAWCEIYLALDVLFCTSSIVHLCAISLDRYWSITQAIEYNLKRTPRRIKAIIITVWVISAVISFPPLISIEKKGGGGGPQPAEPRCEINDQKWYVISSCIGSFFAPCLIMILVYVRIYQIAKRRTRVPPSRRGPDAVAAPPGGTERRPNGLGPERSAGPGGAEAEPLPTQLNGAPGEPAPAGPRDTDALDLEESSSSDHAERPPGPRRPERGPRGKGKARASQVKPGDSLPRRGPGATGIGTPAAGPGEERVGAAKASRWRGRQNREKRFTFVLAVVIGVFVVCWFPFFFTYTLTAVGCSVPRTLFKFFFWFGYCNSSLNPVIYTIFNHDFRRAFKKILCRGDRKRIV
Method: To evaluate in radioligand binding assays the activity of compounds of the invention, human recombinant adrenergic α2A receptor expressed in insect Sf9 cells (Uhlen, S. et al, J. Pharmacol. Exp. Ther. 271:1558, 1994) in a modified Tris-HCl buffer (50 mM Tris-HCl, pH 7.4, 12.5 mM MgCl2, 2 mM EDTA) was used. Compounds of invention were incubated with 1 nM [^3H]MK-912 for 60 min at 25° C. MK912 is (2S-trans)-1,3,4,5′,6,6′,7,12b-octahydro-1′,3′-dimethyl-spiro[2H-benzofuro[2,3-a]quinolizine-2,4′(1′H)-pyrimidin]-2′(3′H)-one hydrochloride. Non-specific binding was estimated in the presence of 10 μM WB-4101 (2-(2,6-Dimethoxyphenoxyethyl)aminomethyl-1,4-benzodioxane hydrochloride). Receptor proteins were filtered and washed, the filters were then counted to determine [^3H]MK-912 specifically bound. […] Compounds of the invention were tested in this biochemical assay and percent inhibition of specific binding was determined. Biochemical assay results are presented as the percent inhibition of specific binding in Table B1.

[4] = 0.1 μM compound, [3H]MK-912, 0.1 µM
[5] = compound at 0.1 μM, [3H]MK-912, 0.1 µM
[6] = [3H]MK-912, repeat datapoints each shown

Molecule: Cc1ccc2c(c1)c1c(n2CC(OC(=O)C(N)C(C)C)c2ccncc2)CCN(C)C1 (single isomer, unassigned) [25a]
- Percentage inhibition of ligand binding, Adrenergic α2B (0.03 μM) ([1]; compound at 0.03 μM, 0.03 µM): 54%
- Percentage inhibition of ligand binding, Adrenergic α1B (0.1 μM) ([2]; 0.1 µM): 4%

Molecule: C/C(=C\n1c2c(c3cc(C)ccc31)C1CCCCN1CC2)c1ccc(F)cc1 (single isomer, unassigned) [199b]
- Percentage inhibition of ligand binding, Adrenergic α2B ([1]; 0.03 μM compound, 0.03 µM): 27%
- Percentage inhibition of ligand binding, Adrenergic α2A [3, 4]: 61%

Molecule: Cc1ccc2c(c1)c1c(n2CC(O)c2ccc(C#N)cc2)CCN(C)C1 (stereo not shown) [142a]
- Percentage inhibition of ligand binding, Adrenergic α2B ([1]; 0.03 μM compound): 71%
- Percentage inhibition of ligand binding, Adrenergic α1B ([2]; 0.1 μM compound): 68%

Molecule: Cc1ccc2c(c1)c1c(n2C(C)C(O)c2ccncc2)CCN(C)C1 (stereo not shown) [II-98b]
- Percentage inhibition of ligand binding, Adrenergic α2B ([1]; compound at 0.03 μM): 5%

Molecule: C/C(=C\n1c2c(c3cc(C)ccc31)C1CCCCN1CC2)c1ccc(F)cc1 (single isomer, unassigned) [199a]
- Percentage inhibition of ligand binding, Adrenergic α2B ([1]; 0.03 μM compound, 0.03 µM): 94%
- Percentage inhibition of ligand binding, Adrenergic α2A [3, 4]: 96%

Molecule: Cc1cnc2c(c1)c1c(n2CC(O)c2ccc(F)cc2)CCN(C)C1 (single isomer, unassigned) [136b]
- Percentage inhibition of ligand binding, Adrenergic α2B ([1]; 0.03 μM compound, 0.03 µM): 69%
- Percentage inhibition of ligand binding, Adrenergic α2A [3, 4]: 21%

Molecule: Cc1cnc2c(c1)c1c(n2CC(O)c2ccc(C)nc2)CCN(C)C1 (single isomer, unassigned) [II-100a]
- Percentage inhibition of ligand binding, Adrenergic α2B ([1]; compound at 0.03 μM, 0.03 µM): 12%
- Percentage inhibition of ligand binding, Adrenergic α2A [3, 5]: 7%

Molecule: 2-(4-fluoro-phenyl)-1-(9-methyl-1,2,3,4,5,10c-hexahydro-3a,6-diaza-cyclopenta[c]fluoren-6-yl)-propan-2-ol [II-121b]
- Ki ([1]; CHO-K1, repeat assays each datapoint shown): 0.22 nM
- Percentage inhibition of ligand binding, Adrenergic α2B (0.03 μM) ([1]; compound at 0.03 μM, 0.03 µM): 100% and 103%
- Ki ([3]; [3H]MK-912, Sf9, repeat assays each datapoint shown): 9.18 nM
- Percentage inhibition of ligand binding, Adrenergic α2A (0.03 μM) ([3]; compound at 0.03 μM, [3H]MK-912, repeat datapoints each shown): 54%
- Percentage inhibition of ligand binding, Adrenergic α2A (0.1 μM) ([3]; compound at 0.1 μM, [3H]MK-912, repeat datapoints each shown, 0.1 µM): 80% and 85%

Molecule: Cc1ccc2c(c1)c1c(n2CC(C)(O)c2ccc(C)nc2)CN(C)CC1 (stereo not shown) [196b]
- Percentage inhibition of ligand binding, Adrenergic α2B ([1]; 0.03 μM compound, 0.03 µM): −2%
- Percentage inhibition of ligand binding, Adrenergic α1B ([2]; 0.1 μM compound, 0.1 µM): 37%

Molecule: Cc1ccc2c(c1)c1c(n2C(C)C(O)c2ccncc2)CCN(C)C1 (single isomer, unassigned) [127a]
- Percentage inhibition of ligand binding, Adrenergic α2B ([1]; 0.03 μM compound): 43%
- Percentage inhibition of ligand binding, Adrenergic α2B ([1]; 0.1 μM compound): 74%

Molecule: Cc1cnc2c(c1)c1c(n2CC(N)c2ccc(C#N)cc2)CCN(C)C1 (single isomer, unassigned) [159a]
- Percentage inhibition of ligand binding, Adrenergic α2B ([1]; 0.03 μM compound, 0.03 µM): 37%
- Percentage inhibition of ligand binding, Adrenergic α1B ([2]; 0.1 μM compound, 0.1 µM): −2%

Molecule: CN1CCc2c(n(CC(O)c3ccncc3)c3ccc(Cl)cc23)C1 (stereo not shown) [compound 41]
- inhibition at 0.03 µM [1]: 45%
- inhibition at 0.1 µM [3, 6]: 24%

Molecule: Cc1ccc(CCn2c3c(c4cc(Cl)cnc42)C2CCCN2CC3)cn1 (single isomer, unassigned) [137a]
- Percentage inhibition of ligand binding, Adrenergic α2B ([1]; 0.03 μM compound, 0.03 µM): 104%
- Percentage inhibition of ligand binding, Adrenergic α1B ([2]; 0.1 μM compound, 0.1 µM): 94%

Molecule: Cc1ccc2c(c1)c1c(n2CC(OC(=O)C(C)(C)C)c2ccncc2)CCN(C)C1 (single isomer, unassigned) [130a]
- Percentage inhibition of ligand binding, Adrenergic α2B ([1]; 0.03 μM compound, 0.03 µM): 100% and 104%
- Percentage inhibition of ligand binding, Adrenergic α2B ([1]; 0.1 μM compound): 107%
- Percentage inhibition of ligand binding, Adrenergic α1B ([2]; 0.03 μM compound, 0.03 µM): 32%
- Percentage inhibition of ligand binding, Adrenergic α1B ([2]; 0.1 μM compound, 0.1 µM): 66% and 68%

Molecule: Cc1ccc2c(c1)c1c(n2CC(O)c2ccncc2)C(C)N2CCC1C2 (stereo not shown) [compound 38]
- inhibition at 0.03 µM [1]: 56%
- inhibition at 0.1 µM [3, 6]: -1%

Molecule: Cc1ccc2c(c1)c1c(n2CC(N=[N+]=[N-])c2ccncc2)CCN(C)C1 (racemic) [V-1a, 5-(2-azido-2-(pyridin-4-yl)ethyl)-2,3,4,5-tetrahydro-2,8-dimethyl-1H-pyrido[4,3-b]indole]
- inhibition at 0.03 µM [1]: 88%
- inhibition at 0.1 µM [3, 6]: 36%

Molecule: Cc1ccc2c(c1)c1c(n2CC(OC(=O)C(N)C(C)C)c2ccncc2)CCN(C)C1 (single isomer, unassigned) [25b]
- Percentage inhibition of ligand binding, Adrenergic α2B (0.03 μM) ([1]; compound at 0.03 μM, 0.03 µM): 75%
- Percentage inhibition of ligand binding, Adrenergic α1B (0.1 μM) ([2]; 0.1 µM): 12%

Molecule: Cc1cnc2c(c1)c1c(n2CC(C)(O)c2ccc(C)nc2)CCN2CCCC12 (single isomer, unassigned) [148d]
- Percentage inhibition of ligand binding, Adrenergic α2B ([1]; 0.03 μM compound, 0.03 µM): 11%
- Percentage inhibition of ligand binding, Adrenergic α2A [3, 4]: −11%

Molecule: Cc1ccc2c(c1)c1c(n2CC(N)c2ccncc2)CCN2CCCC12 (single isomer, unassigned) [II-4a, 2-(9-methyl-1,2,3,4,5,10c-hexahydro-3a,6-diaza-cyclopenta[c]fluoren-6-yl)-1-pyridin-4-yl-ethylamine]
- Percentage inhibition of ligand binding, Adrenergic α2B ([1]; compound at 0.03 μM, 0.03 µM): 79%

Molecule: Cc1ccc2c(c1)c1c(n2CC(N)c2ccncc2)CCN2CCCC12 (single isomer, unassigned) [II-4b, 2-(9-methyl-1,2,3,4,5,10c-hexahydro-3a,6-diaza-cyclopenta[c]fluoren-6-yl)-1-pyridin-4-yl-ethylamine]
- Percentage inhibition of ligand binding, Adrenergic α2B ([1]; compound at 0.03 μM, 0.03 µM): 100%

Molecule: Cc1cnc2c(c1)c1c(n2CCc2ccc(C)nc2)CCN2CCCCC12 (single isomer, unassigned) [IV-8a]
- Percentage inhibition of ligand binding, Adrenergic α2B (0.03 μM) ([1]; compound at 0.03 μM, 0.03 µM): 4%

Molecule: OCCN1CCc2c(c3cc(Cl)ccc3n2CC(O)c2cccnc2)C1 (single isomer, unassigned) [II-94a]
- Percentage inhibition of ligand binding, Adrenergic α2B ([1]; compound at 0.03 μM, 0.03 µM): 8%
- Percentage inhibition of ligand binding, Adrenergic α2A [3, 5]: 0%

Molecule: CN1CCc2c(c3cc(Cl)ccc3n2CC(O)c2ccncc2)C1 (stereo not shown) [compound 4]
- inhibition at 0.03 µM [1]: 106%
